This note sets out measurements from PubChem BioAssay (NCI).

Several values for one entry are separate records, joined by “and”; a condition that tells them apart may be missing. Equal entries are not always repeated.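 Test compounds were applied to cells in 96-well plates for 48 hours at 5 doses. GI50 = concentration required for 50% inhibition of growth. TGI: total growth inhibition.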

Some test systems named below: 786-0 renal; HT29 colon; K-562 leukemia; PC-3 prostate; SNB-19 CNS; RPMI-8226 leukemia; SF-268 CNS; OVCAR-5 ovarian; A549 NSCLC; SK-MEL-28 melanoma.
Holding throughout (experiment): inhibition of tumour cell growth, NCI panel, 48 h

`COc1cccc2c1C(=O)c1c(O)c3c(c(O)c1C2=O)C[C@@](O)(C(=O)CO)C[C@@H]3O[C@H]1C[C@H](N)[C@@H](O)[C@H](C)O1`: the GI50 with 786-0 renal is 0.123 µM; in the assay with K-562 leukemia it was 0.147 µM; with PC-3 prostate, 0.551 µM; in the assay on SNB-19 CNS, 0.127 µM; with RPMI-8226 leukemia, 0.161 µM; in the assay on SF-268 CNS, 0.196 µM. Also, the values for the GI50 with OVCAR-5 ovarian, in the assay with A549 NSCLC and with SK-MEL-28 melanoma were 1.27 µM, 0.05 µM and 0.351 µM, respectively. The TGI amounted to 1.86 µM in the assay with 786-0 renal; 7.75 µM in the assay with HT29 colon; 5.05 µM in the assay with K-562 leukemia; 5.32 µM in the assay with PC-3 prostate; 21.7 µM with SNB-19 CNS; 3.61 µM with RPMI-8226 leukemia. The TGI with SF-268 CNS was 2.08 µM; in the assay on OVCAR-5 ovarian it was 13 µM; in the assay on A549 NSCLC, 1.22 µM; in the assay with SK-MEL-28 melanoma, 1.35 µM.

Take `CCN(CC)CCn1c2ccccc2c(=O)c2c(O)ccc(O)c21`: the TGI in the assay with 786-0 renal is 53.8 µM; with HT29 colon, 59.8 µM; in the assay with K-562 leukemia, 68.5 µM; in the assay on PC-3 prostate it was over 56.1 µM; in the assay with SNB-19 CNS it was over 74.8 µM; in the assay on RPMI-8226 leukemia, 85.4 µM. For the same compound, the TGI in the assay on SF-268 CNS was 52.7 µM; in the assay on OVCAR-5 ovarian it was over 78.5 µM; with A549 NSCLC, over 100 µM; in the assay with SK-MEL-28 melanoma, 48.6 µM.

Turning to `COc1cc(/C=N/NC(=O)c2cnn3c2NC(c2ccccc2)C3)ccc1Oc1ccccc1` (centres undefined), the GI50 with 786-0 renal was 1.19 µM; in the assay on HT29 colon it was 0.432 µM; with K-562 leukemia, 0.571 µM; in the assay on PC-3 prostate, 0.875 µM; with SNB-19 CNS, 1.43 µM; with RPMI-8226 leukemia, 2.83 µM. For the same compound, the GI50 was 2.46 µM with SF-268 CNS, 2.34 µM in the assay on OVCAR-5 ovarian, 1.5 µM with A549 NSCLC and 1.38 µM with SK-MEL-28 melanoma. In addition, the TGI in the assay with 786-0 renal was 5.65 µM; in the assay on HT29 colon, 1.76 µM; in the assay on K-562 leukemia, 18.6 µM; in the assay on PC-3 prostate it was 3.59 µM; in the assay on SNB-19 CNS it was 8.31 µM; in the assay with RPMI-8226 leukemia, 31.4 µM. Further, the TGI in the assay on SF-268 CNS is 14.6 µM; in the assay on OVCAR-5 ovarian, 11.9 µM; with A549 NSCLC, 5 µM; with SK-MEL-28 melanoma, 6.94 µM.

Regarding `Cc1ccc2nc(-c3ccccc3)c(N=O)n2c1`, the TGI in the assay on 786-0 renal, with HT29 colon, in the assay with K-562 leukemia, in the assay on PC-3 prostate, with SNB-19 CNS and with RPMI-8226 leukemia was over 100 µM each time. For the same compound, the TGI in the assay with SF-268 CNS, with OVCAR-5 ovarian, in the assay with A549 NSCLC and in the assay with SK-MEL-28 melanoma was over 100 µM in each case.

Turning to `CCN1C(=O)N(c2ccccc2)C2NC(=S)N(/N=C/C=C/c3ccccc3)C21` (centres undefined), the GI50 was 0.521 µM in the assay with 786-0 renal; 0.295 µM with HT29 colon; 0.155 µM in the assay with K-562 leukemia; 0.394 µM in the assay on PC-3 prostate; 0.472 µM in the assay on SNB-19 CNS; 0.451 µM in the assay on RPMI-8226 leukemia. Moreover, the GI50 is 1.02 µM in the assay on SF-268 CNS, 0.631 µM in the assay on OVCAR-5 ovarian, 0.417 µM in the assay on A549 NSCLC and 1.74 µM in the assay with SK-MEL-28 melanoma. The TGI with 786-0 renal, with HT29 colon, in the assay on K-562 leukemia, in the assay with PC-3 prostate, in the assay with SNB-19 CNS and in the assay with RPMI-8226 leukemia was over 100 µM in each case. Moreover, the TGI with SF-268 CNS, with OVCAR-5 ovarian, in the assay on A549 NSCLC and in the assay with SK-MEL-28 melanoma was over 100 µM each time.

In the case of `COc1cccc(OCCCN)c1-c1cc(Nc2cnc(C#N)cn2)n[nH]1`, the GI50 is 0.00328 µM in the assay on 786-0 renal; 0.0289 µM and 0.0238 µM in the assay with HT29 colon; 0.00444 µM in the assay on K-562 leukemia; 2.41 µM in the assay on PC-3 prostate; 0.0188 µM and 0.0256 µM in the assay with SNB-19 CNS; 0.197 µM and 0.0489 µM with RPMI-8226 leukemia. Also, the GI50 in the assay with SF-268 CNS was 0.0871 µM and 0.0754 µM; in the assay on OVCAR-5 ovarian, 0.0381 µM and 0.043 µM; in the assay with A549 NSCLC, 0.035 µM and 0.0452 µM; in the assay on SK-MEL-28 melanoma it was 0.955 µM and 3.11 µM. The TGI in the assay on 786-0 renal is 0.706 µM; in the assay on HT29 colon it was 1.28 µM; in the assay on K-562 leukemia, 12.8 µM; with PC-3 prostate, 21.5 µM; with SNB-19 CNS, 19.5 µM; with RPMI-8226 leukemia it was 7.59 µM. The TGI stood at 13.2 µM with SF-268 CNS, 15.2 µM with OVCAR-5 ovarian, 15.1 µM in the assay with A549 NSCLC and 17.4 µM in the assay with SK-MEL-28 melanoma.

Take `COc1ccc(-n2cc(-c3cc(OC)c(OC)c(OC)c3)nc2SCc2ccccc2)cc1OC`: the GI50 with 786-0 renal was over 100 µM; with HT29 colon, over 100 µM; in the assay with K-562 leukemia, 54.7 µM; with PC-3 prostate it was 15.3 µM; in the assay on SNB-19 CNS, over 100 µM; in the assay on RPMI-8226 leukemia it was 25.8 µM. Moreover, the GI50 is over 100 µM with SF-268 CNS, over 100 µM with OVCAR-5 ovarian, 48.8 µM in the assay on A549 NSCLC and over 100 µM with SK-MEL-28 melanoma. For the same compound, the TGI with 786-0 renal, with HT29 colon, with K-562 leukemia, in the assay with PC-3 prostate, in the assay with SNB-19 CNS and in the assay with RPMI-8226 leukemia was over 100 µM each time. The TGI in the assay with SF-268 CNS, with OVCAR-5 ovarian, in the assay on A549 NSCLC and with SK-MEL-28 melanoma was over 100 µM each time.
